The source of these data is ChEMBL document CHEMBL3397033, “Bioactive benzofuran derivatives: moracins A-Z in medicinal chemistry” (Eur J Med Chem, 2015).

The subject of one test is A549. Nature of the test: Cytotoxicity against human A549 cells after 96 hrs by MTT assay. In kind it is functional, cell-based. Conditions: A549, 96 h. In general terms: Tetrazolium dyes change colour on reduction, which living cells bring about.
For the next test, the target named is Tyrosinase (Agaricus bisporus, UniProt O42713). Briefly: Inhibition of mushroom tyrosinase.
Test [1] in a line: Cytotoxicity against human BGC823 cells after 96 hrs by MTT assay. It is filed as functional, cell-based. The conditions noted are these: BGC-823, 96 h.
Another test relates to Escherichia coli. Briefly: Antimicrobial activity against Escherichia coli. In kind it is functional.
Test [2] can be described thus: Inhibition of alpha-glucosidase (unknown origin). More on the design: species or system Homo sapiens.
Another test deals with Pseudomonas aeruginosa. Briefly: Antimicrobial activity against Pseudomonas aeruginosa. It is filed as functional.
The subject of a further test is A2780. Nature of the test: Cytotoxicity against human A2780 cells after 96 hrs by MTT assay. In kind it is functional, cell-based. Conditions: A2780, 96 h.
In a further test the test system is Klebsiella pneumoniae. Nature of the test: Antimicrobial activity against Klebsiella pneumoniae. In kind it is functional.
The subject of a further test is Morus alba. Nature of the test: Antioxidant activity in mulberry leaves assessed as UV-stress-induced free radical scavenging activity measured as inhibition of blue formazan at 100 uM. It is filed as functional.
The nature of test [3]: Cytotoxicity against human Bel7402 cells after 96 hrs by MTT assay. It is filed as functional, cell-based. The conditions noted are these: Bel-7402, 96 h.
Test [4] can be described thus: Cytotoxicity against human HCT8 cells after 96 hrs by MTT assay. It is filed as functional, cell-based. Conditions: HCT-8, 96 h.
A short description of test [5]: Antifungal activity against Fusarium lateritium f. sp. mori. In kind it is functional.
Another test deals with Rosellinia necatrix. Briefly: Antifungal activity against Rosellinia necatrix. In kind it is functional.
A short description of test [6]: Antifungal activity against Fusarium roseum. In kind it is functional.
Test [7] can be described thus: Antifungal activity against Cochliobolus miyabeanus. In kind it is functional. Conditions: Bipolaris oryzae.
Test [8] is described as follows: Antifungal activity against Stigmina mori. It is filed as functional.
The subject of test [9] is RAW264.7. Briefly: Antiinflammatory activity against mouse RAW264.7 cells assessed as reduction of LPS-induced NO production. It is filed as functional, cell-based.
Test [10] in a line: Antifungal activity against Diaporthe nomurai. It is filed as functional.
For test [11], the system named is RAW264.7. Briefly: Antiinflammatory activity against mouse RAW264.7 cells assessed as reduction of IFNgamma-induced NO production. It is filed as functional, cell-based.
The nature of test [12]: Antifungal activity against Fusarium solani f. sp. mori. In kind it is functional.
The next test deals with Bacillus subtilis. Nature of the test: Antimicrobial activity against Bacillus subtilis. It is filed as functional.
A further test deals with Micrococcus luteus. Briefly: Antimicrobial activity against Micrococcus luteus. In kind it is functional.
The test system of test [13] is Staphylococcus aureus. Nature of the test: Antimicrobial activity against methicillin-resistant Staphylococcus aureus. In kind it is functional.
The test system of test [14] is Staphylococcus aureus. Briefly: Antimicrobial activity against methicillin-sensitive Staphylococcus aureus. In kind it is functional.
Test [15] can be described thus: Cytotoxicity against human Hep3B cells assessed as cell viability after 24 hrs by MTT assay. It is filed as cell-based, Hep 3B2.

≈ marks a conversion by molar mass, not a printed value.

Tyrosinase, sequence (O42713 whole entry): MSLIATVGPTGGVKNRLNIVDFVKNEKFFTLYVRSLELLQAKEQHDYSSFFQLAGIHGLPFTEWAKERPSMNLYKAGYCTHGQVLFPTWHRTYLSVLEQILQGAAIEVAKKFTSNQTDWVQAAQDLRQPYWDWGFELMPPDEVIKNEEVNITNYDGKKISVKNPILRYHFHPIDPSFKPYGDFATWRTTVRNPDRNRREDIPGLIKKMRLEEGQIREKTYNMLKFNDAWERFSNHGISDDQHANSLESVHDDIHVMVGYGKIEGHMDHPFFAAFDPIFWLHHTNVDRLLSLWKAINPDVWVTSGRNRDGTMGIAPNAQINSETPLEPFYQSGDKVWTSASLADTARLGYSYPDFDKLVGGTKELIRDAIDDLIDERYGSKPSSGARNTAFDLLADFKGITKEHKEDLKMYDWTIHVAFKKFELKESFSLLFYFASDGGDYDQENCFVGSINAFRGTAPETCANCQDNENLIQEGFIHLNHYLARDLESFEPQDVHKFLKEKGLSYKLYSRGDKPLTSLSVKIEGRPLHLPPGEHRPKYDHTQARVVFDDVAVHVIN

Turning to `CC(C)=CCc1cc2cc(-c3cc(O)cc(O)c3)oc2cc1O` [MORACIN N], the IC50 – broadly, the concentration at which inhibition is half-maximal – in the test on A549 is over 10 µg/mL; at Tyrosinase it was 0.924 µM; in test [1], over 10 µg/mL; in test [2], 2.76 µM; in the test with A2780, over 10 µg/mL; in test [3] it was over 10 µg/mL. This compound came in with an IC50 in [4] of over 10 µg/mL. Also, the MIC against Escherichia coli, with Pseudomonas aeruginosa and against Klebsiella pneumoniae was over 100 µg/mL each time. In the test on Morus alba, the inhibition (commonly how much of the control response was suppressed) was determined as 76%.

In the case of `CC1(C)C=Cc2c(O)cc(-c3cc4ccc(O)cc4o3)cc2O1` [MORACIN D], the minimal inhibitory concentration (MIC) – broadly, the lowest concentration that inhibits growth of the organism – was 28 µg/mL (≈ 90.8 µM) in [5]; over 100 µg/mL in the test on Escherichia coli; under 3.5 µg/mL against Rosellinia necatrix; over 100 µg/mL in the test with Pseudomonas aeruginosa; 7 µg/mL (≈ 22.7 µM) in test [6]; over 100 µg/mL in the test with Klebsiella pneumoniae. Besides, the MIC in test [7] was 14 µg/mL (≈ 45.4 µM); in test [8], 56 µg/mL (≈ 182 µM); in test [10], 7 µg/mL (≈ 22.7 µM); in test [12], 112 µg/mL (≈ 363 µM). For the same compound, the results for the IC50 (in test [2]; with RAW264.7 [9]; in the test on RAW264.7 [11]) were 2.54 µM, 18 µM and 18 µM, respectively.

For `CC1(C)Oc2cc3oc(-c4cc(O)cc(O)c4)cc3cc2CC1O` (stereo not drawn) [(+/-)-MORACIN P], the MIC against Bacillus subtilis is 100 µg/mL (≈ 306 µM); with Micrococcus luteus, 100 µg/mL (≈ 306 µM); in the test with Escherichia coli it was over 100 µg/mL; against Staphylococcus aureus [13], 100 µg/mL (≈ 306 µM); against Pseudomonas aeruginosa, over 100 µg/mL; with Klebsiella pneumoniae it was over 100 µg/mL. The compound further gave an MIC against Staphylococcus aureus [14] of 50 µg/mL (≈ 153 µM). Also, the IC50 is 2.9 µM at Tyrosinase, 19.3 µM with RAW264.7 [9], over 30 µM in [15] and 19.3 µM in the test on RAW264.7 [11].
